Assay results as given in ChEMBL document CHEMBL1201862, “PubChem BioAssay data set” (2004).
Counter-ions that a name gives are not always drawn.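 All cell lines were grown in 96-well plates and treated with compound for 48 hours. Here, GI50 denotes the concentration required for 50% inhibition of growth.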 The source made the active and inactive calls. Rule as the data show it: active = GI50 up to about 1.1 µM and inactive = higher.

How the values were obtained:
Test in all cases: NCI tumour cell line growth inhibition, 48 h
DLD-1 = test system: DLD-1
DMS-273 = test system: DMS-273
KM-20L2 = test system: KM-20L2
M19-MEL = test system: M19-MEL
RXF 631 = test system: RXF 631
SNB-78 = test system: SNB-78
XF498 = test system: XF498
DMS-114 = test system: DMS-114
HOP-18 = test system: HOP-18

Row | SMILES | GI50 (DLD-1) | GI50 (DMS-273) | GI50 (KM-20L2) | GI50 (M19-MEL) | GI50 (RXF 631) | GI50 (SNB-78) | GI50 (XF498) | GI50 (DMS-114) | GI50 (HOP-18)
1 | C[Si](C)(C)c1ccc(-c2sc(-c3ccc([Si](C)(C)C)s3)c3c2C[Si]2(C3)Cc3c(-c4ccc([Si](C)(C)C)s4)sc(-c4ccc([Si](C)(C)C)s4)c3C2)s1 | > 100 µM (inactive) | > 100 µM (inactive) | > 100 µM (inactive) | > 100 µM (inactive) | > 100 µM (inactive) | > 100 µM (inactive) | > 100 µM (inactive) |  | 
2 | CN(C)C(=S)/N=c1\ssc(=S)n1C1CCCCC1 | 21.5 µM (inactive) | 28.2 µM (inactive) | 40.5 µM (inactive) | 18.7 µM (inactive) | 19.5 µM (inactive) |  | 19.4 µM (inactive) | 13.9 µM (inactive) | > 100 µM (inactive)
3 | CCN(CC)CC[n+]1ccc2c(C)c3[nH]c4ccc(O)cc4c3c(C)c2c1 | 11.6 µM (inactive) | 2.92 µM (inactive) | 8.47 µM (inactive) | 1.21 µM (inactive) |  | 3.5 µM (inactive) |  | 0.767 µM (active) | 4.23 µM (inactive)
4 | Nc1ccc(C(=O)CC2(O)C(=O)Nc3ccccc32)cc1 (stereo not drawn) | > 100 µM (inactive) | > 100 µM (inactive) | > 100 µM (inactive) | > 100 µM (inactive) |  | > 100 µM (inactive) | > 100 µM (inactive) | > 100 µM (inactive) | 
5 | Cc1[nH]c2ccccc2c1C(=O)CC1(O)C(=O)Nc2ccccc21 (stereo not drawn) | > 100 µM (inactive) | > 100 µM (inactive) | > 100 µM (inactive) | > 100 µM (inactive) | > 100 µM (inactive) | 61 µM (inactive) |  |  | 
6 | COc1ccc(C(C#N)NNC(=O)c2ccccc2O)cc1OC (stereo not drawn) | 0.9 µM (active) | 0.364 µM (active) | 22 µM (inactive) | 6.92 µM (inactive) |  | 0.685 µM (active) |  | 0.573 µM (active) | 10 µM (inactive)
7 | CC(NC(C)(C)C)C(=O)c1cccc(Cl)c1 (stereo not drawn) [BUPROPION HYDROCHLORIDE] | > 100 µM (inactive) | > 100 µM (inactive) | > 100 µM (inactive) | > 100 µM (inactive) | > 100 µM (inactive) |  | > 100 µM (inactive) | > 100 µM (inactive) | 
8 | CC1CC2(CCC1OCc1ccccc1)OCCO2 (stereo not drawn) | > 100 µM (inactive) | > 100 µM (inactive) |  | > 100 µM (inactive) |  | > 100 µM (inactive) | > 100 µM (inactive) | > 100 µM (inactive) | 
9 | Nn1c(-c2cccc(Cl)c2)nc2ccccc2c1=O | > 100 µM (inactive) | > 100 µM (inactive) | > 100 µM (inactive) |  | > 100 µM (inactive) | > 100 µM (inactive) | 23.5 µM (inactive) | > 100 µM (inactive) | 68.5 µM (inactive)
10 | N#C/C(=C1\N=NC(N)=C(c2ccc(Cl)cc2)C1=O)c1ccc(Cl)cc1 | > 100 µM (inactive) | > 100 µM (inactive) | > 100 µM (inactive) | > 100 µM (inactive) |  | > 100 µM (inactive) | > 100 µM (inactive) | > 100 µM (inactive) | > 100 µM (inactive)
11 | COc1cc2c(cc1O)CCN[C@@]21CS[C@H]2c3c(OC(C)=O)c(C)c4c(c3C(COC1=O)N1C2C2c3c(cc(C)c(OC)c3O)CC([C@@H]1O)N2C)OCO4 (stereo partly drawn) | < 1e-06 µM (active) | < 1e-06 µM (active) | < 1e-06 µM (active) | < 1e-06 µM (active) | < 1e-06 µM (active) |  | < 1e-06 µM (active) | < 1e-06 µM (active) | 
12 | CCOC(=O)C1=C(C)CC2C(=O)OC(=O)C2C1(C)C (stereo not drawn) | > 100 µM (inactive) |  |  | > 100 µM (inactive) |  |  |  | > 100 µM (inactive) | > 100 µM (inactive)
13 | COC(=O)C1C(=O)NC2(C)CC1c1ccccc1O2 (stereo not drawn) | > 100 µM (inactive) | > 100 µM (inactive) |  | > 100 µM (inactive) |  | > 100 µM (inactive) | > 100 µM (inactive) | > 100 µM (inactive) | 
